From article PMC11767451, “Novel Approaches to Monitor Pharmacokinetics and Metabolism of Gemcitabine-Ibandronate Conjugate in Mice and Dogs” (Molecules, 2025)
Read-outs that look alike come from different tables or passages of the source.

Legend:
[1] = set-up: method as in PMID 33744463; conditions: (enriched) mouse plasma; cited from earlier work
[2] = cited from earlier work
[3] = set-up: method as in PMID 36571444, PMID 24131140, PMID 21561347; conditions: cancer patients; cited from earlier work
[4] = Stability in dog plasma (accelerated, freeze-thaw, frozen PK samples); type: in vitro ADME; conditions: dog plasma PK samples re-extracted after 2.5 years at <−70 °C
[5] = Stability in mouse plasma (accelerated, freeze-thaw, frozen PK samples); type: in vitro ADME; conditions: mouse plasma PK samples re-extracted after 2.5 years at <−70 °C

| %-ACC, frozen PK sample stability [4] | %-ACC, frozen PK sample stability [5] | Structure (SMILES) | duration stable in mouse plasma [1] | duration stable in human plasma ([2]; −70 °C) | fatal treatment-related events, share of patients [3] | duration stable in human plasma ([2]; −20 °C) |
| --- | --- | --- | --- | --- | --- | --- |
| 63.4% | 71.5% | O=c1ccn([C@@H]2O[C@H](CO)[C@@H](O)C2(F)F)c(=O)[nH]1 [dFdU, 2′,2′-difluoro-2′-deoxyuridine] | up to 42 days | – | – | – |
| 49.3% | 108.1% | O=c1ccn([C@@H]2O[C@H](COP(=O)(O)O)[C@@H](O)C2(F)F)c(=O)[nH]1 [dFdUMP, 2′,2′-difluoro-2′-deoxyuridine-5′-phosphate] | – | – | – | – |

Continued, molecule first:

| Structure (SMILES) | %-ACC, frozen PK sample stability [4] | %-ACC, frozen PK sample stability [5] | duration stable in mouse plasma [1] | duration stable in human plasma ([2]; −70 °C) | fatal treatment-related events, share of patients [3] | duration stable in human plasma ([2]; −20 °C) |
| --- | --- | --- | --- | --- | --- | --- |
| Nc1ccn([C@@H]2O[C@H](CO)[C@@H](O)C2(F)F)c(=O)n1 [GEM, gemcitabine] | – | – | up to 42 days | up to 30 days | <1% to 4 | – |
| Nc1ccn([C@@H]2O[C@H](COP(=O)(O)O)[C@@H](O)C2(F)F)c(=O)n1 [GEMMP, gemcitabine-5′-phosphate] | 58.1% | 64.0% | – | – | – | – |
| CCCCCN(C)CCC(O)(P(=O)(O)O)P(=O)(O)O [IB, ibandronate] | – | – | – | – | – | up to 4 months |
